Data: patent US20130085260A1, “METHOD FOR THE IDENTIFICATION OF T CELL EPITOPES” (CENTRE H[…] L'UNIVERSITE DE MONTREAL, priority 2010, published 2013)

Experiments:
Assay type in all cases: cell-based, human
[1] = system: M1^58-66-specific T cells (M1-CD8); details: EBV-B cells pulsed with peptide; negative specificity control
[2] = system: NP-CD8 T cell clone; details: EBV-B cells pulsed with synthetic peptide, 1 to 10 μg/mL for 10-mer, 50 μg/mL for longer peptides, 3 hours
[3] = system: M1-CD4 T cell clone; experiment: IFN-γ secretion (ELISA) by M1-CD4 T cell clone co-cultured with peptide-pulsed EBV-B cells; details: EBV-B cells pulsed with synthetic peptide; HLA-DR-restricted
Description: Antigen-specific bulk T cells from peripheral blood mononuclear cells stimulated with autologous CD4O-B cells electroporated with M1 or NP DNA plasmids were cloned by limiting dilution and cultured as previously described.^8
Synthetic peptides were added to EBV-B cells at a final concentration of 1 to 10 μg/mL for MHC class 110-mer peptides (50 μg/mL for longer peptides) (Table 2) for 3 hours at 37° C. 5% CO2, and then washed once to remove unbound peptides. T-cell clones were washed and cultured for 4 hours in Iscove's complete medium supplemented with 120 IU/ml of interleukin-2 (IL-2). T cell clones' reactivity to MHC-restricted epitopes was tested on the basis of interferon-γ cytokine secretion as described previously.^7

Row | Sequence | recognition by NP-CD8 T cell clone (IFN-γ production) [2] | recognition by M1-CD4 T cell clone (IFN-γ production) [3] | also measured
1 | IMDQVPFSV [gp100^209-218 peptide] |  |  | recognition by M1^58-66-specific T cells (IFN-γ production) [1]: did not recognize
2 | LSAFDERRNKYLEEHPSAG [Peptide 1-6] | well recognized |  | 
3 | AFDERRNKYL [Peptide 2] | more weakly but nevertheless specifically recognized |  | 
4 | NGNGDPNNMDKAVKL [Peptide b] |  | weakly recognized | 
5 | YRKLKREITF |  | specifically recognized | 
